Laboratory results as given in ChEMBL document CHEMBL5727068, “Inhibitors of PTP4A3 for the treatment of cancer” (2019).

Molecular target: Protein tyrosine phosphatase type IVA 3 (Homo sapiens, UniProt O75365)
Experiment: In Vitro Biochemical Evaluation: The in vitro biochemical evaluation of all compounds was carried out using recombinant human PTP4A3, overexpressed as a His6-tag fusion protein in E. coli and purified on a metal affinity column. Assays were performed using 6,8-difluoro-4-methylumbelliferyl phosphate (DiFMUP) as an artificial substrate at 25° C. for 30 min in 40 mM Tris-HCl (pH 7.0), 75 mM NaCl, 2 mM EDTA, and 4 mM DTT buffer. […] The fluorescence was measured using a SpectraMax M5 plate reader at 358 nm excitation and 455 nm emission. Fluorescence values were used to calculate the percent inhibition of enzyme activity relative to maximal activity, PTP4A3 in the absence of inhibitor, and maximal inhibition, PTP4A3 in the presence of 2 mM Na3VO4.

Sequence of Protein tyrosine phosphatase type IVA 3 (O75365 whole entry, the tested form may be a part): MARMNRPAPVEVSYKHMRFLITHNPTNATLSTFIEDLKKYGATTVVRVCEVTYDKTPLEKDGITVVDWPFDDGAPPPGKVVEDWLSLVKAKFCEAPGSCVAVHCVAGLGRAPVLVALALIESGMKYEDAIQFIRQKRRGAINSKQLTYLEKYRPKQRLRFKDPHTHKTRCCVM

- IC50: > 250 µM
Structure (SMILES): O=c1[nH]c(=O)c2cc(-c3ccccc3)sc2[nH]1
